Test results: patent US5071965A, “Novel TC-99M complexes” (Mallinckrodt Medical, Inc., priority 1989, dated 1991)

Experiment: not given
Conditions: in vivo, 5 min

Structure (SMILES)	5 Minute Guinea Pig % HT Uptake
CC(=NCC(C)(CN=C(C)c1cc(F)ccc1O)CN=C(C)c1cc(F)ccc1O)c1cc(F)ccc1O (stereo not drawn) [R5=H, R6=H, R7=F, R8=H, R3=CH3, R4=CH3, 1',1',1'-tris(5-fluoro-2-hydroxyacetophenoiminemethyl)ethane]	0.66%

Experiment: not given
Conditions: rat, in vivo; cited from earlier work

Structure (SMILES)	washout from the heart (biodistribution data in rats)
COc1ccc(O)c(C=NCC(C)(CN=Cc2cc(OC)ccc2O)CN=Cc2cc(OC)ccc2O)c1 (stereo not drawn) [1,1,1-tris (5-methoxysalicyl-aldiminomethyl) ethane]	washed out quickly from the heart

Experiment: not given
Conditions: in vivo; cited from earlier work

Structure (SMILES)	washout from the heart (images of a dog's heart)
COc1ccc(O)c(C=NCC(C)(CN=Cc2cc(OC)ccc2O)CN=Cc2cc(OC)ccc2O)c1 (stereo not drawn) [1,1,1-tris (5-methoxysalicyl-aldiminomethyl) ethane]	washed out quickly from the heart

Experiment: not given
Conditions: literature, Green et al. 1985; cited from earlier work

Structure (SMILES)	overall charge
COc1ccc(O)c(C=NCC(C)(CN=Cc2cc(OC)ccc2O)CN=Cc2cc(OC)ccc2O)c1 (stereo not drawn) [1,1,1-tris (5-methoxysalicyl-aldiminomethyl) ethane]	no overall charge

Experiment: Biodistribution of Tc-99m complexes in guinea pigs (heart uptake, heart/blood)
Conditions: 5 minutes, Tc-99m complex
Procedure: The procedures used for determining biodistribution are as follows.
Guinea Pigs--The guinea pigs are anesthetized and the technetium complex is injected into the jugular vein after a cutdown. The animals are sacrificed after 5 minutes and the organs removed and counted as with the rats.
For guinea pigs, significant heart uptake is determined if the percentage of technetium in the heart is greater than 0.5% and the heart/blood ratio is greater than 1.

Structure (SMILES)	Guinea Pig Heart/Blood Ratio
COc1ccc(C=NCC(C)(CN=Cc2ccc(OC)cc2O)CN=Cc2ccc(OC)cc2O)c(O)c1 (stereo not drawn) [R5=H, R6=OCH3, R7=H, R8=H, R3=H, R4=CH3, 3-Methoxyphenol, 6,6'-[[2-[[[(4-methoxy-2-hydroxyphenyl)methylene]amino]methyl]-2-methyl-1,3-propanediyl]bis(nitrilomethylidyne)]bis-]	16

Same assay, conditions: complex made from the reduced ligand

Structure (SMILES)	guinea pig biodistributions, compared with the complex of Example 95
CCCOCC(CNCc1ccccc1O)(CNCc1ccccc1O)CNCc1ccccc1O [Example 96, 1,1,1-tris(2-hydroxyphenylmethylaminomethyl)-2-propoxyethane]	identical

Same assay, conditions: jugular vein injection, 5 minutes, Tc-99m complex

Structure (SMILES)	5 Minute Guinea Pig % HT Uptake
COc1cc(COCC(CN=Cc2c(O)cc(OC)c(OC)c2OC)(CN=Cc2c(O)cc(OC)c(OC)c2OC)CN=Cc2c(O)cc(OC)c(OC)c2OC)cc(OC)c1OC (stereo not drawn) [3,4,5-trimethoxyphenol, 2,2'-[[2-[[[(4,5,6-trimethoxy-2-hydroxyphenyl)methylene]amino]methyl]-2-(3,4,5-trimethoxyphenyl)methoxymethyl-1,3-propanediyl]bis(nitrilomethylidyne)]bis-]	0.98%
COc1ccc(C=NCC(C)(CN=Cc2ccc(OC)cc2O)CN=Cc2ccc(OC)cc2O)c(O)c1 (stereo not drawn) [R5=H, R6=OCH3, R7=H, R8=H, R3=H, R4=CH3, 3-Methoxyphenol, 6,6'-[[2-[[[(4-methoxy-2-hydroxyphenyl)methylene]amino]methyl]-2-methyl-1,3-propanediyl]bis(nitrilomethylidyne)]bis-]	2.11%
COc1ccc(COCC(CN=Cc2c(O)cc(OC)c(OC)c2OC)(CN=Cc2c(O)cc(OC)c(OC)c2OC)CN=Cc2c(O)cc(OC)c(OC)c2OC)cc1 (stereo not drawn) [3,4,5-trimethoxyphenol, 2,2'-[[2-[[[(4,5,6-trimethoxy-2-hydroxyphenyl)methylene]amino]methyl]-2-(4-methoxyphenyl)methoxymethyl-1,3-propranediyl]bis(nitrilomethylidyne)]bis-]	1.04%
CCOc1ccc(C=NCC(C)(CN=Cc2ccc(OCC)cc2O)CN=Cc2ccc(OCC)cc2O)c(O)c1 (stereo not drawn) [3-Ethoxyphenol, 6,6'-[[2[[[(4-ethoxy-2-hydroxyphenyl)methylene]amino]methyl-2-methyl-1,3-propanediyl]bis(nitrilomethylidyne)]bis-]	0.98%
CCCCOCC(CN=Cc1ccccc1O)(CN=Cc1ccccc1O)CN=Cc1ccccc1O (stereo not drawn) [Phenol, 2,2'[[-[[[(2-hydroxyphenyl)methylene]amino]methyl]-2-butoxymethyl-1,3-propandiyl]bis(nitrilomethylidyne)]bis-]	1.463%
COc1cccc(O)c1C=NCC(C)(CN=Cc1c(O)cccc1OC)CN=Cc1c(O)cccc1OC (stereo not drawn) [R5=H, R6=H, R7=H, R8=OCH3, R3=H, R4=CH3, 3-Methoxyphenol, 2,2'-[[2-[[[(6-methoxy-2-hydroxyphenyl)methylene]amino]methyl]-2-methyl-1,3-propanediyl]bis(nitrilomethylidyne)]bis-]	1.55%
Oc1ccccc1C=NCC(CN=Cc1ccccc1O)(CN=Cc1ccccc1O)COc1cccc2ccccc12 (stereo not drawn) [phenol, 2,2'[[2-[[[(2-hydroxyphenyl)methylene]amino]methyl]-2-α-napthoxymethyl-1,3-propanediyl]bis(nitrilomethylidyne)]bis-]	0.72%
CCC(C)OCC(CN=Cc1ccccc1O)(CN=Cc1ccccc1O)CN=Cc1ccccc1O (stereo not drawn) [Phenol, 2,2'-[[2-[[[(2-hydroxyphenyl)methylene]amino]methyl]-(1-methylpropoxy)methyl-1,3-propanediyl]bis(nitrilomethylidyne)]bis-]	1.55%
COc1cc(O)c(C=NCC(C)(CN=Cc2c(O)cc(OC)c(OC)c2OC)CN=Cc2c(O)cc(OC)c(OC)c2OC)c(OC)c1OC (stereo not drawn) [3,4,5-trimethoxyphenol, 2,2'-[[2-[[[(4,5,6-trimethoxy-2-hydroxyphenyl)methylene]amino]methyl]-2-methyl-1,3-propanediyl]bis(nitrilomethylidyne)]bis-]	1.57%
COC(=O)c1ccc(O)c(C=NCC(C)(CN=Cc2cc(C(=O)OC)ccc2O)CN=Cc2cc(C(=O)OC)ccc2O)c1 (stereo not drawn) [methyl-4-hydroxybenzoate, 3,3'-[[2-[[[(5-carbomethoxy-2-hydroxyphenyl)methylene]amino]methyl]-2-methyl-1,3-propanediyl]bis(nitrilomethylidyne)]bis-]	1.23%
CCOCC(CN=Cc1ccccc1O)(CN=Cc1ccccc1O)CN=Cc1ccccc1O (stereo not drawn) [phenol, 2,2'-[[2-[[[(2-hydroxyphenyl)methylene]amino]methyl]-2-ethoxymethyl-1,3-propanediyl]bis(nitrilomethylidyne)]bis-]	1.71%
COc1c(O)c(C=NCC(C)(CN=Cc2c(O)c(OC)c(OC)c(OC)c2OC)CN=Cc2c(O)c(OC)c(OC)c(OC)c2OC)c(OC)c(OC)c1OC (stereo not drawn) [2,3,4,5-tetramethoxyphenol, 6,6'-[[2-[[[(3,4,5,6-tetramethoxy-2-hydroxyphenyl)methylene]amino]methyl]-2-methyl-1,3-propanediyl]bis(nitrilomethylidyne)]bis-]	1.24%
CCCCCC(CN=Cc1ccccc1O)(CN=Cc1ccccc1O)CN=Cc1ccccc1O (stereo not drawn) [Phenol, 2,2'-[[2[[[(2-hydroxyphenyl)methylene]amino]methyl]-2-pentyl-1,3-propanediyl]bis(nitrilomethylidyne)]bis-]	1.15%
CCCOCC(CN=Cc1cc(OC)ccc1O)(CN=Cc1cc(OC)ccc1O)CN=Cc1cc(OC)ccc1O (stereo not drawn) [4-Methoxyphenyl, 2,2'-[[2-[[[(5-methoxy-2-hydroxyphenyl)methylene]amino]methyl] -2-propoxymethyl-1,3-propanediyl]bis(nitrilomethylidyne)]bis-]	1.52%
COC(C)(C)Cc1ccc(O)c(C=NCC(C)(CN=Cc2cc(CC(C)(C)OC)ccc2O)CN=Cc2cc(CC(C)(C)OC)ccc2O)c1 (stereo not drawn) [4-(2-methoxy-2-methyl-propyl)phenol, 2,2'-[[2-[[[(5-(2-methoxy-2-methyl-propyl)-2-hydroxyphenyl)methylene]amino]methyl]-2-methyl-1,3-propanediyl]bis(nitrilomethylidyne)]bis-]	0.49%
CCCOCC(CN=Cc1ccc(C)cc1O)(CN=Cc1ccc(C)cc1O)CN=Cc1ccc(C)cc1O (stereo not drawn) [3-Methylphenol, 6,6'-[[2-[[[(4-methyl-2-hydroxyphenyl)methylene]amino]methyl]-2-propoxymethyl-1,3-propanediyl]bis(nitrilomethylidyne)]bis-]	1.79%
COCCOCC(CN=Cc1ccccc1O)(CN=Cc1ccccc1O)CN=Cc1ccccc1O (stereo not drawn) [phenol, 2,2'-[[2-[[[(2-hydroxyphenyl)methylene]amino]methyl]-2-methoxyethoxymethyl-1,3-propanediyl]bis(nitrilomethylidyne)]bis-]	1.01%
CCCCCOCC(CN=Cc1ccccc1O)(CN=Cc1ccccc1O)CN=Cc1ccccc1O (stereo not drawn) [Phenol, 2,2'-[[2-[[[(2-hydroxyphenyl)methylene]amino]methyl]-2-pentyloxymethyl-1,3-propandiyl]bis(nitrilomethylidyne)]bis-]	1.22%
